# Patent publication US10087178B2, “Substituted spiropyrido[1,2-a]pyrazine derivative and medicinal use thereof as HIV integrase inhibitor” (priority 2012, dated 2018)
# Structures can show the parent of a compound that is named as a salt. Where two headings read alike, the source gives them in different places.
# Tested on: HIV-1 NL4-3 strain
# Test: Evaluation of antiviral activity: acute infection system of MT-4 cell with HIV-1 NL4-3 strain
# Type: cell-based
# Settings: Human immunodeficiency virus 1, NL43, MT4, 120 h
structure (smiles),measurement,setting,value
"CCN1C[C@]2(C[C@H](CO)C2)n2cc(C(=O)NCc3cccc(Cl)c3F)c(=O)c(O)c2C1=O [Example S46, N-(3-chloro-2-fluorobenzyl)-2′-ethyl-9′-hydroxy-cis-3-(hydroxymethyl)-1′,8′-dioxo-1′,2′,3′,8′-tetrahydrospiro[cyclobutane-1,4′-pyrido[1,2-a]pyrazine]-7′-carboxamide hydrochloride]",EC50,"MT-4 cells infected with HIV-1 NL4-3 strain (MOI 0.05), cultured 5 days, Cell Titer-Glo, read-out: antiviral activity (EC50)",4.4 nM
"CN1C[C@]2(C[C@@H](O)C2)n2cc(C(=O)NCc3ccc(F)cc3F)c(=O)c(O)c2C1=O [Example S11, N-(2,4-difluorobenzyl)- trans-3,9′-dihydroxy-2′-methyl-1′,8′-dioxo-1′,2′,3′,8′-tetrahydrospiro[cyclobutane-1,4′-pyrido[1,2-a]pyrazine]-7′-carboxamide hydrobromide]",EC50,"antiviral activity, MT-4 cells infected with HIV-1 NL4-3 (MOI 0.05), 5 days culture, Cell Titer-Glo luminescence, read-out: EC50",25 nM
"CCN1C[C@]2(C[C@H]2CO)n2cc(C(=O)NCc3cccc(Cl)c3F)c(=O)c(O)c2C1=O [Example T17, (1R,2R)-N-(3-chloro-2-fluorobenzyl)-2′-ethyl-9′-hydroxy-2-(hydroxymethyl)-1′,8′-dioxo-1′,2′,3′,8′-tetrahydrospiro[cyclopropane-1,4′-pyrido[1,2-a]pyrazine]-7′-carboxamide hydrochloride]",EC50,"read-out: antiviral activity (EC50), MT-4 cells infected with HIV-1 NL4-3 strain (MOI 0.05), cultured 5 days, Cell Titer-Glo",5.7 nM
